Data reported in PubChem BioAssay AID179 (DTP/NCI, 2004).
Activity calls are given as the source filed them.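 Rule for the calls: active = compounds giving half or more protection of infected cells from virus-caused growth loss, again on retest; inactive = the rest.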 Where a SMILES comes first, the peptide text is derived from it. The star is where a group is joined. Cbz = O=C(OCc1ccccc1)*

Test system: CEM cells HIV-1 protection, formazan growth assay
Test: NCI AIDS Antiviral Assay
Conditions: for IC50: measured here: growth of uninfected CEM cells
Outline: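 Steps: treat uninfected and HIV-1-infected human CEM cells at five drug levels; quantify growth by soluble formazan; retest any compound reaching 50% protection; classify actives from the retest.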

Structure (SMILES)	EC50	IC50	outcome
Clc1ccc(Nc2nc3ccccc3nc2-c2cccs2)cc1Cl	> 14.1 µM	> 14.1 µM	–
COC1OC2COC1(OC)C1OC(C)(C)OC21 (stereo not given)	> 200 µM	> 200 µM	–
CCC(C)(C)NS(=O)(=O)c1ccccc1	–	–	inactive
c1nc(SSc2ncnc3nc[nH]c23)c2[nH]cnc2n1	> 20 µM	0.457 µM	–
C(=C(c1ccccc1)c1ccccc1)N1CCOCC1	> 200 µM	> 200 µM	–
CC(C)CN(CC(C)C)C(=O)C(Br)C(Br)C(=O)O (stereo not given)	> 200 µM	91.2 µM	–
C=CCC12CC(=O)CCC1c1ccc(OC)cc1C2=O (stereo not given)	> 251 µM	141 µM	–
CCSC(=O)C1(C)Cc2ccccc2O1 (stereo not given)	–	–	inactive
CCCCCC=C(c1cc(Cl)c(O)c(C(=O)NO)c1)c1cc(Cl)c(O)c(C(=O)NO)c1	> 200 µM	35.5 µM	–
CCOC(=O)c1ccc(NC(=O)c2cccc3c(Nc4ccc(S(=O)(=O)Nc5cc(C)on5)cc4)c4ccccc4nc23)cc1	> 200 µM	4.57 µM	–
CC/C(Cl)=N\OC(=O)Nc1ccc(F)c([N+](=O)[O-])c1	> 200 µM	2.82 µM	–
COc1ccc2c(c1)[n+]([O-])c(/C(C)=N/NC(N)=S)c(C)[n+]2[O-]	> 209 µM	102 µM	–
COc1ccc(CCCNC(=O)c2cc(OC)c(OC)cc2CCO)cc1OC	> 200 µM	> 200 µM	–
COC1/C=C/OC2(C)Oc3c(C)c(O)c4c(O)c(cc(OCC(=O)N5CC(C)(C)C5)c4c3C2=O)NC(=O)/C(C)=C/C=CC(C)C(O)C(C)C(O)C(C)C(OC(C)=O)C1C (stereo not given)	> 200 µM	26.9 µM	–
CCOP(=O)(OCC)/C(F)=C/c1ccccc1	> 200 µM	> 200 µM	–
CC1C2CC(C(S(=O)(=O)O)C2=O)C1(C)C (stereo not given)	> 1000 µM	> 1000 µM	–
C=C(C)[C@@H]1CC[C@]2(COC(=O)CC(C)(C)CC(=O)O)CC[C@]3(C)[C@H](CC[C@@H]4[C@@]5(C)CC[C@H](OC(=O)CC(C)(C)CC(=O)O)C(C)(C)[C@@H]5CC[C@]43C)[C@@H]12	> 200 µM	7.08 µM	–
CC1=NCCC[N-]CC[N-]CCCN=C1C.[Ni+2].[O-][Cl+3]([O-])([O-])O	> 200 µM	> 200 µM	–
Cc1cc(O)c(/C=N/C(=S)Nc2ccc(S(N)(=O)=O)cc2)c(=O)o1	> 200 µM	> 200 µM	–
COC(=O)Cc1c(-c2c(CC(=O)OC)c3ccccc3n2C2OC(COC(C)=O)C(OC(C)=O)C(OC(C)=O)C2OC(C)=O)[nH]c2ccccc12 (stereo not given)	> 200 µM	26.3 µM	–
CCOC(=O)Nc1nn(-c2ccc3ccccc3n2)c(=O)[nH]1	> 63.1 µM	10 µM	–

Structure (SMILES)	EC50	IC50	outcome
CCCCC(Sc1cc(Cl)c(C)cc1S(=O)(=O)Nc1n[nH]c(N)n1)C(=O)OC (stereo not given)	> 200 µM	> 100 µM	–
COc1ccc2ccnc(Cc3ccc(OCc4ccccc4)c(OC)c3)c2c1	–	–	inactive
Cc1nc2c(=O)[nH]ncc2[nH]1	> 200 µM	> 200 µM	–
CCCC(=O)c1c(NOC2OC(COC(C)=O)C(OC(C)=O)C(OC(C)=O)C2OC(C)=O)nc(OC)n(C)c1=O (stereo not given)	> 63.1 µM	> 63.1 µM	–
CC(=O)OCC1OC(Nc2[nH]c(=O)[nH]c(=O)c2N=O)C(OC(C)=O)C(OC(C)=O)C1OC(C)=O (stereo not given)	> 200 µM	> 200 µM	–
COC(=O)C(Cc1ccccc1)NS(=O)(=O)c1ccc(-c2c3nc(c(-c4ccc(S(=O)(=O)NC(Cc5ccccc5)C(=O)OC)cc4)c4ccc([nH]4)c(-c4ccc(S(=O)(=O)NC(Cc5ccccc5)C(=O)OC)cc4)c4nc(c(-c5ccc(S(=O)(=O)NC(Cc6ccccc6)C(=O)OC)cc5)c5ccc2[nH]5)C=C4)C=C3)cc1 (stereo not given)	> 126 µM	> 126 µM	–
COc1ccc(-c2nc3ccccc3s2)cc1S(=O)(=O)O	> 105 µM	95.5 µM	–
O=C(C=P(c1ccccc1)(c1ccccc1)c1ccccc1)C1(C(=O)C=P(c2ccccc2)(c2ccccc2)c2ccccc2)CC1	> 200 µM	9.55 µM	–
CCN(CCN(CC)C(=O)Nc1ccccc1)C(=O)Nc1ccccc1	> 200 µM	> 200 µM	–
COc1cc2ccc3c4cc(OC)c(OC(C)C)cc4c[n+](C)c3c2cc1OC	> 178 µM	174 µM	–
CC(C)(C)C(=O)OC1CCOP(=O)(OCC2OC(n3cc(F)c(=O)[nH]c3=O)CC2O)O1 (stereo not given)	> 200 µM	2.69 µM	–
CC(N)(CC(O)(C(F)(F)Cl)C(F)(F)Cl)C(=O)O (stereo not given)	> 200 µM	> 200 µM	–
O=C(O)CC(O)(CC(=O)O)C(=O)O	–	–	inactive
C[C@@H]1C[C@@H]2C(=O)N(c3ccccc3)C(=O)[C@@H]2c2[nH]c3ccc(Br)cc3c21	–	–	inactive
COc1ccc(-c2nc(-c3cnccn3)n(C/C=C/c3ccccc3)n2)cc1	64.6 µM	> 200 µM	–
CCOC(=O)N1CCN(Cc2cc(=O)n3ccc(C)cc3n2)CC1	> 200 µM	> 200 µM	–
Cc1cccc(N=Nc2c(C)nn(C(=O)CC(=O)Nc3ccc(Cl)cc3)c2C)c1	> 200 µM	123 µM	–
CCOC(=O)c1cc(C(=O)c2ccccc2)n2nc(-c3ccc(Cl)cc3)ccc12	> 50.1 µM	> 50.1 µM	–
Cc1ccc(S(=O)(=O)NCCCN(CCCNS(=O)(=O)c2ccc(C)cc2)S(=O)(=O)c2ccc(C)cc2)cc1	> 2.45 µM	> 2.45 µM	–
Cc1cc(N(CCC#N)CCC#N)ccc1/C=C1N=C(/C=C\c2ccccc2)N(c2ccc(C(=O)O)cc2)C\1=O	> 13.5 µM	> 13.5 µM	–
O=S(=O)(O)CO	> 200 µM	151 µM	–

Structure (SMILES)	EC50	IC50	outcome
Cc1cccc(N=Nc2c(C)nn(C(=O)c3ccccc3)c2C)c1	–	–	inactive
CC(=O)OCC12CC(OC(C)=O)C(C)=CC1O[C@@H]1C(O)[C@@H](O)[C@@]2(C)[C@@]12CO2 (stereo not given in full)	> 66.1 µM	0.0282 µM	–
COc1ccc2c(c1)c1ccc3c(c1n2C)C(=O)C=CC3=O	> 89.1 µM	2.95 µM	–
N#CC(C#N)c1ccc(C(=O)N2CCC[C@H]2CO)cc1	–	–	inactive
CCCc1cc(=O)oc2c3c(c4c(c12)OC(C)(C)CC4)O[C@H](C)[C@H](C)C3=O	> 30.2 µM	13.2 µM	–
O=C1/C(=C\c2ccccc2)C2/C(=C\c3ccccc3)C(=O)/C(=C\c3ccccc3)C2/C1=C\c1ccccc1 (stereo not given)	–	–	inactive
O=C1NC2(CCN(CCc3ccccc3)CC2)Oc2ccccc21	> 200 µM	191 µM	–
NC(=O)N/N=C\CC(O)(C(F)(F)Cl)C(F)(F)Cl	> 200 µM	> 200 µM	–
[CH3][Sn]1([CH3])[O]CC(COc2cc(Cl)c(Cl)cc2Cl)[O]1 (stereo not given)	> 24 µM	15.5 µM	–
O=S1(=O)OC(c2cc(Cl)c(O)c(Br)c2)(c2cc(Cl)c(O)c(Br)c2)c2ccccc21	380 µM	501 µM	–
CN(C)COC(=S)[S-].CN(C)COC(=S)[S-].CN(C)COC(=S)[S-].[Fe+6]	> 2 µM	0.363 µM	–
O=c1[nH]c(=O)n2n1CC(Br)C(Br)C2 (stereo not given)	–	–	inactive
COC1(OC)N=C(N)C2(C#N)C(C)=C3NCN(C)N=C3C12C#N (stereo not given)	> 200 µM	> 200 µM	–
CCOC(=O)C(NC(C)=O)(Nc1ccc(S(N)(=O)=O)cc1)C(F)(F)F (stereo not given)	> 200 µM	> 200 µM	–
CCCCCCCCCCCCCCCCCCOC(COP(=O)(O)OCC1OC(n2cc(F)c(=O)[nH]c2=O)CC1O)COP(=O)(O)OCC1OC(n2cc(C)c(=O)[nH]c2=O)CC1N=[N+]=[N-] (stereo not given)	> 5.75 µM	0.0501 µM	–
O=C(Cc1ccccc1[N+](=O)[O-])C(CO)c1ccccc1[N+](=O)[O-] (stereo not given)	> 110 µM	> 110 µM	–
CC1=CC2C(C=C1)S(=O)(=O)N1CC21c1ccccc1 (stereo not given)	–	–	inactive
CCOC(=O)/C(=C/c1ccc(C#N)cc1)N(CC)CC	> 251 µM	> 251 µM	–
CCOC(=O)CCC(NC(=O)C(CC(=O)OC)NC(=O)C(CC(=O)OC)NC(=O)C(CC(=O)OC)NC(=O)C(CC(=O)OC)NC(=O)OCc1ccccc1)C(=O)NC(CCC(=O)OCC)C(=O)NC(CCC(=O)OCC)C(=O)OCC (stereo not given) (Cbz-D(OMe)D(OMe)D(OMe)D(OMe)E(OEt)E(OEt)E(OEt)-OEt; configuration not given here)	> 50.1 µM	> 50.1 µM	–
O=c1[nH]c2cc3[nH]c(=O)c(=O)[nH]c3cc2[nH]c1=O	> 200 µM	> 200 µM	–
CC1=NN(C(=O)CC(=O)NC(=O)CC(=O)Nc2ccccc2F)C(=O)C1N=Nc1ccc([N+](=O)[O-])cc1 (stereo not given)	> 70.8 µM	44.7 µM	–

Structure (SMILES)	EC50	IC50	outcome
Cc1csc2nc(-c3cccs3)nn12	> 200 µM	> 200 µM	–
NNC(=O)/C(=C/c1ccc(Cl)cc1Cl)NC(=O)c1ccccc1	> 135 µM	110 µM	–
N#Cc1c(-c2ccc(Cl)cc2)c(C#N)c(=O)n(NS(=O)(=O)c2ccccc2)c1S	> 200 µM	17 µM	–
COC(=O)c1ccccc1SSc1ccccc1C(=O)OC	> 200 µM	18.6 µM	–
CCSC(=O)NNc1nc2ccccc2s1	> 200 µM	63.1 µM	–
CO[C@H]1CC[C@@]2(C)C(CC[C@@]3(C)CC4=C[C@H]5C(C)(CO)C(=O)CCC5(C)[C@H]4CCC32)C1(C)C (stereo not given in full)	> 100 µM	> 100 µM	–
c1ccc(CNc2ccc3[nH]c4cnccc4c3c2)cc1	> 251 µM	36.3 µM	–
O=CSC(=Nc1ccc(Cl)cc1)NC(=O)COc1ccc(Cl)cc1	> 148 µM	> 100 µM	–
O=c1[nH]c2ccccc2nc1/C=C/NC(=S)NCc1ccccc1	–	–	inactive
CCO/C=N\C1=C(C#N)SC2=N/C(=C\c3ccc(OC)cc3)C(=O)N21	> 200 µM	> 200 µM	–
CCOC(=O)c1ccc(NC(=O)O/N=C(/Cl)CCl)cc1	> 200 µM	18.6 µM	–
O=C(NCCCl)Nc1ccccn1	> 200 µM	> 200 µM	–
Cc1cc(C)c(NC(=O)c2ccccc2)c(=O)o1	> 200 µM	> 200 µM	–
O=C(CCCl)NNC1=NCCCN1	> 200 µM	> 200 µM	–
Nc1ccccc1S(=O)(=O)N(CC(=O)O)c1ccccc1	–	–	inactive
CNC(=S)N/N=C(\C)c1cc(OC)c(OC)cc1O	> 200 µM	> 200 µM	–
C=CCC1(c2ccc(OC)cc2)C=CC(=O)CC1 (stereo not given)	> 282 µM	79.4 µM	–
O=C1c2ccccc2CCC1(Br)Cc1ccccc1 (stereo not given)	> 200 µM	20.4 µM	–
